# Laboratory results as given in PubChem BioAssay AID1259407 (Chemical Carcinogenesis Research Information System (CCRIS), 2018).
# Activity calls are given as the source filed them. How the calls were made is not given here.
# System: CCRIS mutagenicity, Ames/micronucleus/aberration tests
# Test: CCRIS mutagenicity studies
# [1] = Test System: AMES SALMONELLA TYPHIMURIUM, Strain/Indicator: TA100, Metabolic Activation: NONE, Method: STANDARD PLATE
# [2] = Test System: AMES SALMONELLA TYPHIMURIUM, Strain/Indicator: TA1538, Metabolic Activation: NONE, Method: STANDARD PLATE
# [3] = Test System: AMES SALMONELLA TYPHIMURIUM, Strain/Indicator: TA98, Metabolic Activation: NONE, Method: STANDARD PLATE
# [4] = Test System: AMES SALMONELLA TYPHIMURIUM, Strain/Indicator: TA98, Metabolic Activation: RAT, LIVER, S-9, AROCLOR 1254, Method: STANDARD PLATE
# [5] = Test System: AMES SALMONELLA TYPHIMURIUM, Strain/Indicator: TA100, Metabolic Activation: RAT, LIVER, S-9, AROCLOR 1254, Method: STANDARD PLATE
# [6] = Test System: AMES SALMONELLA TYPHIMURIUM, Strain/Indicator: TA1538, Metabolic Activation: RAT, LIVER, S-9, AROCLOR 1254, Method: STANDARD PLATE
compound,measurement,setting,value
O=[N+]([O-])OCC(CO[N+](=O)[O-])O[N+](=O)[O-],mutagenic call,"Test System: AMES SALMONELLA TYPHIMURIUM, Strain/Indicator: TA100(NR), Metabolic Activation: NONE, Method: STANDARD PLATE",inactive; negative
same,mutagenic call,[1],inactive; negative
same,mutagenic call,"Test System: AMES SALMONELLA TYPHIMURIUM, Strain/Indicator: TA102, Metabolic Activation: HAMSTER, LIVER, S-9, AROCLOR 1254, Method: STANDARD PLATE",inactive; negative
same,mutagenic call,"Test System: AMES SALMONELLA TYPHIMURIUM, Strain/Indicator: TA102, Metabolic Activation: NONE, Method: STANDARD PLATE",inactive; negative
same,mutagenic call,"Test System: AMES SALMONELLA TYPHIMURIUM, Strain/Indicator: TA1535, Metabolic Activation: HAMSTER, LIVER, S-9, AROCLOR 1254, Method: STANDARD PLATE",active; positive
same,mutagenic call,"Test System: AMES SALMONELLA TYPHIMURIUM, Strain/Indicator: TA1535, Metabolic Activation: NONE, Method: STANDARD PLATE",active; positive
same,mutagenic call,[2],inactive; negative
same,mutagenic call,"Test System: AMES SALMONELLA TYPHIMURIUM, Strain/Indicator: TA1975, Metabolic Activation: NONE, Method: STANDARD PLATE",inactive; negative
same,mutagenic call,"Test System: AMES SALMONELLA TYPHIMURIUM, Strain/Indicator: YG1026, Metabolic Activation: NONE, Method: STANDARD PLATE",inactive; negative
COc1cccc2cccnc12,mutagenic call,"Test System: AMES SALMONELLA TYPHIMURIUM, Strain/Indicator: TA100, Metabolic Activation: S-9, Method: PREINCUBATION",inactive; negative
CCN(CC)c1ccc(N=Nc2ccc(N=Nc3c(S(=O)(=O)O)cc4ccc(N)cc4c3O)c(OC)c2)cc1,mutagenic call,[3],inactive; negative
same,mutagenic call,[4],active; positive
same,mutagenic call,[1],inactive; negative
same,mutagenic call,[5],inactive; negative
same,mutagenic call,[2],inactive; negative
same,mutagenic call,[6],active; positive
O=[N+]([O-])c1cc2[nH]c3cc([N+](=O)[O-])c4ccccc4c3c2c2ccccc12,mutagenic call,[3],active; positive
same,mutagenic call,"Test System: AMES SALMONELLA TYPHIMURIUM, Strain/Indicator: TA98, Metabolic Activation: RAT, LIVER, S-9, 3-METHYLCHOLANTHRENE, Method: STANDARD PLATE",active; positive
same,mutagenic call,[1],active; positive
same,mutagenic call,"Test System: AMES SALMONELLA TYPHIMURIUM, Strain/Indicator: TA100, Metabolic Activation: RAT, LIVER, S-9, 3-METHYLCHOLANTHRENE, Method: STANDARD PLATE",active; positive
Cn1cc(C(=O)O)c(=O)c2ccc(/C=C/c3ccc([N+](=O)[O-])o3)nc21,mutagenic call,"Test System: AMES SALMONELLA TYPHIMURIUM, Strain/Indicator: TA100, Metabolic Activation: RAT, LIVER, S-9, KC500 OR PHENOBARBITAL, Method: LIQUID SUSPENSION",active; positive
OC1c2cccc3ccc4cccc1c4c23,mutagenic call,"Test System: AMES SALMONELLA TYPHIMURIUM, Strain/Indicator: TA98, Metabolic Activation: HUMAN, LIVER, CYTOSOL, PAPS, Method: PREINCUBATION",inactive; negative
c1cncc(C2=NCCC2)c1,mutagenic call,"End Point: Lymphocytes, Strain/Indicator: Human (male and female) (HPRT)/6-Thioguanine, Metabolic Activation: None",active; positive (p=0.038)
Nc1ncnc2c1ncn2-c1ccc([N+](=O)[O-])cc1[N+](=O)[O-],mutagenic call,"Test System: AMES SALMONELLA TYPHIMURIUM, Strain/Indicator: TA98(1,8-DNP), Metabolic Activation: NONE, Method: PREINCUBATION",inactive; negative
same,mutagenic call,"Test System: AMES SALMONELLA TYPHIMURIUM, Strain/Indicator: TA98(1,8-DNP), Metabolic Activation: RAT, LIVER, S-9, PCB, Method: PREINCUBATION",inactive; negative
same,mutagenic call,"Test System: AMES SALMONELLA TYPHIMURIUM, Strain/Indicator: TA98(NR), Metabolic Activation: NONE, Method: PREINCUBATION",inactive; negative
same,mutagenic call,"Test System: AMES SALMONELLA TYPHIMURIUM, Strain/Indicator: TA98(NR), Metabolic Activation: RAT, LIVER, S-9, PCB, Method: PREINCUBATION",inactive; negative
same,mutagenic call,"Test System: AMES SALMONELLA TYPHIMURIUM, Strain/Indicator: TA98, Metabolic Activation: NONE, Method: PREINCUBATION",inactive; negative
same,mutagenic call,"Test System: AMES SALMONELLA TYPHIMURIUM, Strain/Indicator: TA98, Metabolic Activation: RAT, LIVER, S-9, PCB, Method: PREINCUBATION",inactive; negative
same,mutagenic call,"Test System: AMES SALMONELLA TYPHIMURIUM, Strain/Indicator: TA100(1,8-DNP), Metabolic Activation: RAT, LIVER, S-9, PCB, Method: PREINCUBATION",inactive; negative
same,mutagenic call,"Test System: AMES SALMONELLA TYPHIMURIUM, Strain/Indicator: TA100(NR), Metabolic Activation: NONE, Method: PREINCUBATION",inactive; negative
same,mutagenic call,"Test System: AMES SALMONELLA TYPHIMURIUM, Strain/Indicator: TA100(NR), Metabolic Activation: RAT, LIVER, S-9, PCB, Method: PREINCUBATION",inactive; negative
same,mutagenic call,"Test System: AMES SALMONELLA TYPHIMURIUM, Strain/Indicator: TA100, Metabolic Activation: NONE, Method: PREINCUBATION",active; positive
same,mutagenic call,"Test System: AMES SALMONELLA TYPHIMURIUM, Strain/Indicator: YG1020, Metabolic Activation: RAT, LIVER, S-9, PCB, Method: PREINCUBATION",inactive; negative
same,mutagenic call,"Test System: AMES SALMONELLA TYPHIMURIUM, Strain/Indicator: YG1021, Metabolic Activation: RAT, LIVER, S-9, PCB, Method: PREINCUBATION",inactive; negative
same,mutagenic call,"Test System: AMES SALMONELLA TYPHIMURIUM, Strain/Indicator: YG1024, Metabolic Activation: NONE, Method: PREINCUBATION",active; positive
same,mutagenic call,"Test System: AMES SALMONELLA TYPHIMURIUM, Strain/Indicator: YG1024, Metabolic Activation: RAT, LIVER, S-9, PCB, Method: PREINCUBATION",active; positive
same,mutagenic call,"Test System: AMES SALMONELLA TYPHIMURIUM, Strain/Indicator: YG1025, Metabolic Activation: NONE, Method: PREINCUBATION",inactive; negative
same,mutagenic call,"Test System: AMES SALMONELLA TYPHIMURIUM, Strain/Indicator: YG1025, Metabolic Activation: RAT, LIVER, S-9, PCB, Method: PREINCUBATION",inactive; negative
same,mutagenic call,"Test System: AMES SALMONELLA TYPHIMURIUM, Strain/Indicator: YG1026, Metabolic Activation: NONE, Method: PREINCUBATION",inactive; negative
same,mutagenic call,"Test System: AMES SALMONELLA TYPHIMURIUM, Strain/Indicator: YG1026, Metabolic Activation: RAT, LIVER, S-9, PCB, Method: PREINCUBATION",inactive; negative
same,mutagenic call,"Test System: AMES SALMONELLA TYPHIMURIUM, Strain/Indicator: YG1029, Metabolic Activation: NONE, Method: PREINCUBATION",active; positive
same,mutagenic call,"Test System: AMES SALMONELLA TYPHIMURIUM, Strain/Indicator: YG1029, Metabolic Activation: RAT, LIVER, S-9, PCB, Method: PREINCUBATION",active; positive
N[C@@H](CCC(=O)N[C@@H](CS/C(Cl)=C\Cl)C(=O)NCC(=O)O)C(=O)O,mutagenic call,"Test System: AMES SALMONELLA TYPHIMURIUM, Strain/Indicator: TA2638, Metabolic Activation: NONE, Method: PREINCUBATION",active; positive
same,mutagenic call,"Test System: AMES SALMONELLA TYPHIMURIUM, Strain/Indicator: TA2638, Metabolic Activation: RAT, KIDNEY, CYTOSOL, Method: PREINCUBATION",active; positive
same,mutagenic call,"Test System: AMES SALMONELLA TYPHIMURIUM, Strain/Indicator: TA2638, Metabolic Activation: RAT, KIDNEY, MICROSOMES, Method: PREINCUBATION",active; positive
same,mutagenic call,"Test System: AMES SALMONELLA TYPHIMURIUM, Strain/Indicator: TA2638, Metabolic Activation: RAT, KIDNEY, MITOCHONDRIA, Method: PREINCUBATION",active; positive
O=C1NC(=O)C(CBr)=C1Cl,mutagenic call,[1],active; positive
C1=Cc2cc3c4ccccc4ccc3c3cccc1c23,mutagenic call,[3],inactive; negative
same,mutagenic call,"Test System: AMES SALMONELLA TYPHIMURIUM, Strain/Indicator: TA98, Metabolic Activation: RAT, LIVER, S-9, AROCLOR 1254 (0.127 OR 1.27 MG S-9 PROTEIN), Method: STANDARD PLATE",active; positive
same,mutagenic call,[4],active; positive
same,mutagenic call,[5],active; positive
same,mutagenic call,"Test System: AMES SALMONELLA TYPHIMURIUM, Strain/Indicator: TA1535, Metabolic Activation: RAT, LIVER, S-9, AROCLOR 1254, Method: STANDARD PLATE",inactive; negative
same,mutagenic call,"Test System: AMES SALMONELLA TYPHIMURIUM, Strain/Indicator: TA1537, Metabolic Activation: RAT, LIVER, S-9, AROCLOR 1254, Method: STANDARD PLATE",active; positive
same,mutagenic call,[6],active; positive
